Measurements reported in the NIST ThermoML archive (doi:10.1016/j.fluid.2006.02.016).
Several values for one entry are separate records, joined by “and”; a condition that tells them apart may be missing. Equal values may be shown once. ± gives the expanded uncertainty stated by the source.

Settings: Liquid

Row | SMILES | vapor or sublimation pressure (273.15 K) [kPa] | vapor or sublimation pressure (283.15 K) [kPa] | vapor or sublimation pressure (293.15 K) [kPa] | vapor or sublimation pressure (303.15 K) [kPa] | vapor or sublimation pressure (313.15 K) | vapor or sublimation pressure (323.15 K) [kPa] | vapor or sublimation pressure (268.15 K) [kPa] | vapor or sublimation pressure (278.15 K) [kPa] | vapor or sublimation pressure (288.15 K) [kPa] | vapor or sublimation pressure (298.15 K) [kPa] | vapor or sublimation pressure (308.15 K) [kPa] | vapor or sublimation pressure (318.15 K) [kPa]
1 | FCC(F)(F)F [1,1,1,2-tetrafluoroethane] | 294.2 ± 2.5 | 416.9 ± 3.3 | 571.9 ± 4.3 | 770.4 ± 5.6 | 1012.8 ± 7.1 kPa | 1313.8 ± 9.1 |  |  |  |  |  | 
2 | CCC [propane] | 474.6 ± 3.7 | 636.6 ± 4.7 | 836.2 ± 6 | 1078.4 ± 7.6 | 1369 ± 12 kPa and 1363.8 ± 9.4 kPa | 1709.2 ± 12 | 407.9 ± 3.3 | 549.4 ± 4.2 | 735 ± 5.4 | 954.8 ± 6.8 | 1213 ± 8.4 | 1530.8 ± 10
3 | CC(F)(F)F [1,1,1-trifluoroethane] |  |  |  |  |  |  | 529.2 ± 4 | 722.4 ± 5.3 | 962 ± 6.8 | 1261.8 ± 8.7 | 1619.8 ± 11 | 2055.2 ± 14
